Reference: PubChem BioAssay (NCI)
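The concentration for 50% growth inhibition is given as GI50. TGI marks complete inhibition of growth.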

Legend:
Assay in all cases: growth of human tumour cells (NCI), 384-well format
[1] = system: 786-0 renal
[2] = system: A498 renal
[3] = system: A549 NSCLC
[4] = system: ACHN renal
[5] = system: BT-549 breast
[6] = system: CAKI-1 renal
[7] = system: CCRF-CEM leukemia
[8] = system: COLO 205 colon
[9] = system: DU-145 prostate
[10] = system: EKVX NSCLC
[11] = system: HCC-2998 colon
[12] = system: HCT-15 colon
[13] = system: HL-60(TB) leukemia
[14] = system: HOP-62 NSCLC
[15] = system: HOP-92 NSCLC
[16] = system: HS 578T breast
[17] = system: HT29 colon
[18] = system: IGROV1 ovarian
[19] = system: K-562 leukemia
[20] = system: KM12 colon
[21] = system: LOX IMVI melanoma
[22] = system: M14 melanoma
[23] = system: MALME-3M melanoma
[24] = system: MCF7 breast
[25] = system: MDA-MB-231 breast
[26] = system: MDA-MB-435 melanoma
[27] = system: MDA-MB-468 breast
[28] = system: MOLT-4 leukemia
[29] = system: NCI-H226 lung
[30] = system: NCI-H23 lung
[31] = system: NCI-H322M lung
[32] = system: NCI-H460 NSCLC
[33] = system: NCI-H522 lung
[34] = system: NCI/ADR-RES ovarian
[35] = system: OVCAR-3 ovarian
[36] = system: OVCAR-4 ovarian
[37] = system: OVCAR-5 ovarian
[38] = system: OVCAR-8 ovarian
[39] = system: PC-3 prostate
[40] = system: RPMI-8226 leukemia
[41] = system: RXF 393 renal
[42] = system: SF-268 CNS
[43] = system: SF-295 CNS
[44] = system: SF-539 CNS
[45] = system: SK-MEL-28 melanoma
[46] = system: SK-MEL-5 melanoma
[47] = system: SK-OV-3 ovarian
[48] = system: SN12C renal
[49] = system: SNB-19 CNS
[50] = system: SNB-75 CNS
[51] = system: SR leukemia
[52] = system: SW-620 colon
[53] = system: T-47D breast
[54] = system: TK-10 renal
[55] = system: U251 glioblastoma
[56] = system: UACC-257 melanoma
[57] = system: UACC-62 melanoma
[58] = system: UO-31 renal

In the case of `Nc1ncnc2c1c(-c1cccc(OCc3ccccc3)c1)cn2C1CC(CN2CCC2)C1` (stereo unspecified), the GI50 [1] is reported as 1610 nM, the TGI [1] is reported as 2970 nM and the GI50 [2] is reported as 1490 nM. For the same compound, the TGI [2] was 2830 nM, the GI50 [3] was 1550 nM and the TGI [3] was 3070 nM. It also gave a GI50 [4] of 1910 nM, a TGI [4] of 3710 nM and a GI50 [5] of 1370 nM. It also gave a TGI [5] of 2680 nM, a GI50 [6] of 1650 nM and a TGI [6] of 3220 nM. For the same compound, the GI50 [7] was 2080 nM, the TGI [7] was 3520 nM and the GI50 [8] was 327 nM. It also gave a TGI [8] of 1440 nM, a GI50 [9] of 2650 nM and a TGI [9] of 11000 nM. The GI50 [10] was 1410 nM, the TGI [10] was 3100 nM and the GI50 [11] was 1400 nM. For the same compound, the TGI [11] was 2720 nM, the GI50 [12] was 1280 nM and the TGI [12] was 2590 nM. It also gave a GI50 [13] of 182 nM, a TGI [13] of 1030 nM and a GI50 [14] of 1820 nM. It also gave a TGI [14] of 3250 nM, a GI50 [15] of 1140 nM and a TGI [15] of 2360 nM. The GI50 [16] was 1820 nM, the TGI [16] was 3230 nM and the GI50 [17] was 336 nM. It also gave a TGI [17] of 1720 nM, a GI50 [18] of 2180 nM and a TGI [18] of 4870 nM. It also gave a GI50 [19] of 1690 nM, a TGI [19] of 3100 nM and a GI50 [20] of 1820 nM. The TGI [20] was 3760 nM, the GI50 [21] was 1610 nM and the TGI [21] was 2970 nM. It also gave a GI50 [22] of 1620 nM, a TGI [22] of 2980 nM and a GI50 [23] of 1060 nM. It also gave a TGI [23] of 2250 nM, a GI50 [24] of 360 nM and a TGI [24] of 1680 nM. For the same compound, the GI50 [25] was 1660 nM, the TGI [25] was 3340 nM and the GI50 [26] was 1280 nM. For the same compound, the TGI [26] was 2570 nM, the GI50 [27] was 1330 nM and the TGI [27] was 2630 nM. It also gave a GI50 [28] of 1770 nM, a TGI [28] of 3160 nM and a GI50 [29] of 1190 nM. For the same compound, the TGI [29] was 2960 nM, the GI50 [30] was 1100 nM and the TGI [30] was 2490 nM. It also gave a GI50 [31] of 1650 nM, a TGI [31] of 4490 nM and a GI50 [32] of 1340 nM. The TGI [32] was 2690 nM, the GI50 [33] was 1720 nM and the TGI [33] was 3120 nM. The GI50 [34] was 1760 nM, the TGI [34] was 3420 nM and the GI50 [35] was 1760 nM. It also gave a TGI [35] of 3450 nM, a GI50 [36] of 1890 nM and a TGI [36] of 4040 nM. It also gave a GI50 [37] of 1300 nM, a TGI [37] of 2860 nM and a GI50 [38] of 1610 nM. It also gave a TGI [38] of 3010 nM, a GI50 [39] of 1800 nM and a TGI [39] of 3460 nM. The GI50 [40] was 1830 nM, the TGI [40] was 3230 nM and the GI50 [41] was 1590 nM. The TGI [41] was 2970 nM, the GI50 [42] was 1810 nM and the TGI [42] was 3230 nM. It also gave a GI50 [43] of 1890 nM, a TGI [43] of 3310 nM and a GI50 [44] of 1760 nM. The TGI [44] was 3150 nM, the GI50 [45] was 1430 nM and the TGI [45] was 2740 nM. The GI50 [46] was 704 nM, the TGI [46] was 2000 nM and the GI50 [47] was 1750 nM. It also gave a TGI [47] of 3160 nM, a GI50 [48] of 2310 nM and a TGI [48] of 5800 nM. The GI50 [49] was 2530 nM, the TGI [49] was 7280 nM and the GI50 [50] was 1920 nM. For the same compound, the TGI [50] was 3520 nM, the GI50 [51] was 1650 nM and the TGI [51] was 3020 nM. The GI50 [52] was 1330 nM, the TGI [52] was 2630 nM and the GI50 [53] was 1490 nM. It also gave a TGI [53] of 2900 nM, a GI50 [54] of 1610 nM and a TGI [54] of 3240 nM. The GI50 [55] was 1870 nM, the TGI [55] was 3390 nM and the GI50 [56] was 1130 nM. It also gave a TGI [56] of 2350 nM, a GI50 [57] of 1510 nM and a TGI [57] of 2840 nM. It also gave a GI50 [58] of 1610 nM and a TGI [58] of 3020 nM.
